Results reported in the NIST ThermoML archive (doi:10.1016/j.tca.2008.07.001).
Numbers after ± are expanded uncertainties.

What was measured:
[1] = refractive index (Na D-line) (dimensionless); settings: 298.15 K; 101.33 kPa; Liquid; Standard Abbe refractometry
[2] = 298.15 K; 101.33 kPa; Liquid; Pycnometric method

refractive index [1]: 1.4712 ± 0.0008
mass density [2]: 1052.25 ± 1.1 kg/m3
SMILES: CN1CCN(C)C1=O [1,3-dimethyl-2-imidazolidinone]
